The results in this text go back to PubChem BioAssay (NCI).

Values joined by “and” are separate entries in the source; they are usually repeats but may differ in a detail not shown here. Equal values may be shown once.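 Test compounds were applied to cells in 96-well plates for 48 hours at 5 doses. Abbreviation: GI50, concentration required for 50% inhibition of growth. At the TGI there is no net growth.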

What all share (test): growth of human tumour cells (NCI), 48 h
Assay [1] has as its system MCF7 breast.
The subject of assay [2] is MDA-MB-231 breast.
In assay [3] the test system is MDA-N.
The test system of assay [4] is XF 498 CNS.
Assay [5] concerns HOP-18 NSCLC.
The subject of assay [6] is KM20L2 colon.
The test system of assay [7] is DMS 273 small cell lung.
Assay [8] relates to SNB-78 CNS.

On to `Nc1ncn([C@@H]2S[C@H](CO)[C@@H](O)[C@@H]2F)c(=O)n1`, for which, in assay [1], the GI50 is 0.279 µM and the TGI was > 100 µM. Also, in assay [2], the GI50 is > 100 µM and the TGI was > 100 µM.

Take `Cn1ncc(-c2ccc3c(=O)[nH]nc(CN)c3c2)c1-c1c(F)c(Cl)cc(OC2CC2)c1C#N`: the GI50 is 10.8 µM and 10.2 µM in assay [1]; 14.7 µM and 13.8 µM in assay [2]. In addition, the TGI in assay [1] was 23.6 µM and 23.3 µM; in assay [2], 29.8 µM and 28.4 µM.

`FC(F)(F)c1cccc(-c2nc3nc(Cl)c(Cl)nc3[nH]2)c1`: the results for the TGI in assay [3], in assay [1] and in assay [2] were 32 µM, 8.95 µM and 8.39 µM, respectively.

For the compound `CCc1c2c(nc3ccc(OCc4ccc(B(O)O)cc4)cc13)-c1cc3c(c(=O)n1C2)COC(=O)[C@]3(O)CC`, the results for the GI50 in assay [1] and in assay [2] were < 0.01 µM and 1.37 µM, respectively. Besides, the TGI in assay [2] is > 89.5 µM.

For `CN(C)c1cc2ccccc2oc1=O`, the TGI in assay [3], in assay [1] and in assay [2] was > 100 µM throughout.

As to `O=C(O)CCNS(=O)(=O)c1ccc(NC(=O)c2ccccc2)cc1`, the TGI in assay [4], in assay [5], in assay [6] and in assay [7] was > 100 µM throughout.

`c1ccc(NN(Cc2cnccn2)c2ccccc2)cc1`: the TGI in assay [3], in assay [1] and in assay [2] was > 100 µM each time.

On to `Nc1nc2ccc(-c3nc4ccc5[nH]ncc5c4c4c3CCC4)cc2s1`, for which, in assay [1], the GI50 is 0.165 µM and the TGI was determined as 7.36 µM. Also, in assay [2], the GI50 is 0.511 µM and the TGI is 11.5 µM.

For `CN(C(=O)/C=C/c1ccccc1)C1C2CN3CCC(O2)C13` (centres undefined), the TGI in assay [4], in assay [8], in assay [5], in assay [6] and in assay [7] was > 100 µM in each case.

For the compound `O=S(=O)(/N=c1\scc(-c2ccccc2)n1-c1ccccc1)c1ccc(N2N=C3c4ccccc4CC3C2c2ccc(Cl)cc2)cc1` (centres undefined), the figures for the GI50 in assay [1] and in assay [2] were > 100 µM and 70 µM, respectively. The TGI in assay [1] and in assay [2] was > 100 µM throughout.

For `CC(=O)Nc1ccc(-c2cc(C(=O)O)c3cc4ccccc4cc3n2)cc1`, the TGI in assay [3], in assay [1] and in assay [2] was > 100 µM in each case.

`CC(=O)c1c(O)c(C)c(O)c(Cc2c(O)c3c(c(C(=O)/C=C/c4ccccc4)c2O)OC(C)(C)C=C3)c1O`: the TGI in assay [3] was > 100 µM; in assay [1] it was 19.9 µM; in assay [2], 6.86 µM.

For `COc1cc(C)ccc1C(=O)c1ccc(C)cc1OC`, in assay [1], the GI50 is 0.92 µM and the TGI was > 100 µM. In addition, in assay [2], the GI50 was 7.58 µM and the TGI was > 100 µM.

Regarding `CC1=C([Se]CC(OC(=O)CC[Se]c2ccccc2)C(=O)NC(C)(C)C)C(=O)c2ccccc2C1=O` (centres undefined), in assay [1], the GI50 is 1.69 µM and the TGI is 3.73 µM. Moreover, in assay [2], the GI50 is 1.55 µM and the TGI was 3.01 µM.

In the case of `O=C(Oc1cccnc1)c1cccnc1Nc1ccnc(C(F)(F)F)c1`, in assay [1], the GI50 was 2.68 µM and the TGI was > 100 µM. In assay [2], the GI50 was 14.1 µM and the TGI is > 100 µM.

For `COc1ccc2c(c1)C(=O)/C(=C/c1cccc(OCC(=O)c3ccccc3)c1)CC2`, the GI50 was 4.53 µM in assay [1] and 69.9 µM in assay [2]. Besides, the TGI in assay [1] and in assay [2] was > 100 µM in each case.

Turning to `COc1cccc(-c2nc3cc(NC(=O)c4ccc(Cl)c(C#N)c4)ccc3o2)c1`, in assay [2], the GI50 is 3.28 µM and the TGI is > 100 µM.

Take `C[N+](C)(C)CCC(=O)CC[N+](C)(C)C`: the TGI turned out to be 46.6 µM in assay [4]; 50.8 µM in assay [8]; 31.8 µM in assay [5]; 55.4 µM in assay [6]; 63.6 µM in assay [7].

With `Clc1ccc(-c2cn3ccnc3c(-c3ccc(Cl)cc3)n2)cc1`, the figures for the GI50 in assay [1] and in assay [2] were 11.4 µM and 7.04 µM, respectively. Further, the results for the TGI in assay [1] and in assay [2] were > 100 µM and 47 µM, respectively.

For the compound `CCC1(O)C(=O)OCc2c1cc1n(c2=O)Cc2cc3ccccc3nc2-1` (centres undefined), the results for the TGI in assay [1] and in assay [2] were 2.06 µM and 7.06 µM, respectively.

Take `O=C(O)c1nc(NCc2nc3cc(Cl)ccc3o2)n[nH]1`: the GI50 in assay [1] and in assay [2] was > 100 µM throughout. In addition, the TGI in assay [1] and in assay [2] was > 100 µM throughout.

As to `C/C(=N/O)c1cccc(Nc2cc(-n3nnc4ccccc43)nc3ccccc23)c1`, in assay [1], the GI50 is 14.4 µM and the TGI is > 55.6 µM. Further, in assay [2], the GI50 was 7.2 µM and the TGI is > 23.4 µM.

For `O=C1OCC2=C1C(c1cccc(F)c1)c1cc3c(cc1N2CCO)OCO3` (centres undefined), the GI50 in assay [1] was 1.44 µM; in assay [2] it was 3.09 µM. In addition, the TGI in assay [1] and in assay [2] was > 50 µM throughout.

With `Nc1ncnc2c1ncn2C1OC(CSCC(F)(F)F)C(O)C1O` (centres undefined), the TGI in assay [4], in assay [8], in assay [5], in assay [6] and in assay [7] was > 100 µM throughout.

With `CN(C)CCNC(=O)Cn1ccc(=O)c2cc([N+](=O)[O-])ccc21`, the TGI in assay [3] and in assay [1] was > 100 µM throughout.

Consider `CC(CO)Nc1cc(-c2[nH]c3cccnc3c2-c2ccc(F)cc2)ccn1` (centres undefined), for which, in assay [1], the GI50 is 9.36 µM and the TGI was > 25 µM. In assay [2], the GI50 was 19.3 µM and the TGI is > 25 µM.

For the compound `C/C=C/C(C#N)O[Si](C)(C)C` (centres undefined), the TGI in assay [4], in assay [8], in assay [5], in assay [6] and in assay [7] was > 100 µM throughout.

For the compound `COc1ccc(C2=Nn3c(nnc3-c3cc(Cl)cc(Cl)c3Cl)SC2)cc1`, in assay [1], the GI50 is 0.326 µM and the TGI is > 100 µM. In assay [2], the GI50 was 0.81 µM and the TGI was 26.2 µM.
